Earlier results on 13 compounds are cited in patent US6693094B2, “Biguanide and sulfonylurea formulations for the prevention and treatment of insulin resistance and type 2 diabetes mellitus” (Chrono RX LLC, priority 2001, dated 2004).

The conditions of series [1]: in vivo.
Series [2] deals with perfused rat hearts.
Series [3] relates to insulin secreting β-cells. The following applies: hyperglycemic conditions.
For series [4], the system named is pancreatic islets. Conditions: islets exposed to IL-1 beta.
For series [5] the following is noted: in vivo. The source holds these as a separate data set.
In series [6] the test system is obese type 2 diabetes patients. The following applies: 600 mg/day, used alone.
The conditions of series [7]: in vivo. This is another data set of the same source.
Series [8] addresses sulfonylurea receptor (Homo sapiens, UniProt Q09428). Conditions: sulfonylurea receptors of the β-cell membrane.
Series [9] relates to patients with essential hypertension and coronary artery disease. Conditions: 60 mg twice daily for 8 weeks, oral.
Series [10] relates to insulin-resistant type 2 diabetes patients.

sulfonylurea receptor, sequence (Q09428 whole entry): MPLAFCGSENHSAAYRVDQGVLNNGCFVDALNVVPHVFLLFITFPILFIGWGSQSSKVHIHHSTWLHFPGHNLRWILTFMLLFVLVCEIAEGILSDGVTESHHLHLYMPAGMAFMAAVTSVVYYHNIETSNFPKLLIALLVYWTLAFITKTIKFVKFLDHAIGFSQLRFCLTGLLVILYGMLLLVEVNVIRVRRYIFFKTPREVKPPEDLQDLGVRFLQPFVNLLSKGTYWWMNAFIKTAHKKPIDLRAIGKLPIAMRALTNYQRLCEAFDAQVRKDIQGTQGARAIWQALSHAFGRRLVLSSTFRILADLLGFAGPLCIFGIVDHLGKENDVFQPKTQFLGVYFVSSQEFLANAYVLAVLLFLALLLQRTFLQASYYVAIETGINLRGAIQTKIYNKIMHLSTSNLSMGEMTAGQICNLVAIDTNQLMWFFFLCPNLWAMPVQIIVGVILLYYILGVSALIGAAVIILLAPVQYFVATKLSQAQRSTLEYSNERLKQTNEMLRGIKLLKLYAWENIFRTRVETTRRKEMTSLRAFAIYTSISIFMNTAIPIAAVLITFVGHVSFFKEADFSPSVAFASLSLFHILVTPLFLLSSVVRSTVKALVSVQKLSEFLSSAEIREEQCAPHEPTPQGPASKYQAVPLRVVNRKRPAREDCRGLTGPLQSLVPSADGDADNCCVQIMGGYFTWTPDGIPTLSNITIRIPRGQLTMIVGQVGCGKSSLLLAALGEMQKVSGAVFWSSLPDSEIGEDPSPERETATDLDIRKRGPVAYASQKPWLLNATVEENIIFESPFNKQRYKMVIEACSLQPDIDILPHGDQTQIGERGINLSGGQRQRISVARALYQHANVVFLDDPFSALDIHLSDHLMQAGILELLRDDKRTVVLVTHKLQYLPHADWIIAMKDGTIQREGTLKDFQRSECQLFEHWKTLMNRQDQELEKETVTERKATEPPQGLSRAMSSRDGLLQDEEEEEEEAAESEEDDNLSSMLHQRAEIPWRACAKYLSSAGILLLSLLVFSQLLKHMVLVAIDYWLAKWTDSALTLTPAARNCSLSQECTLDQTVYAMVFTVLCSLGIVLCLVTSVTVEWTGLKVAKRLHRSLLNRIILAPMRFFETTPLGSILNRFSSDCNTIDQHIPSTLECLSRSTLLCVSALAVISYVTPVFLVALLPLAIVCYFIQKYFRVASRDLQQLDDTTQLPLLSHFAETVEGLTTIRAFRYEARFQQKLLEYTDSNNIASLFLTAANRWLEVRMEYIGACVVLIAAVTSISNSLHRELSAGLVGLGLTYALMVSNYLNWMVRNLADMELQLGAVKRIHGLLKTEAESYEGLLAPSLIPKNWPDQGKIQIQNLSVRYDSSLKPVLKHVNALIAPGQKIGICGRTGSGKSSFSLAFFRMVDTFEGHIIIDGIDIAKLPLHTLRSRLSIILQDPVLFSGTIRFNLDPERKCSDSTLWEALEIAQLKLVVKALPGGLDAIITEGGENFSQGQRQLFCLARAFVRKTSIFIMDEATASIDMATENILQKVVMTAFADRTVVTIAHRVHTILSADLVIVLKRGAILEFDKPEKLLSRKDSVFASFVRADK
sulfonylurea receptor, sequence (Q14654 whole entry partner): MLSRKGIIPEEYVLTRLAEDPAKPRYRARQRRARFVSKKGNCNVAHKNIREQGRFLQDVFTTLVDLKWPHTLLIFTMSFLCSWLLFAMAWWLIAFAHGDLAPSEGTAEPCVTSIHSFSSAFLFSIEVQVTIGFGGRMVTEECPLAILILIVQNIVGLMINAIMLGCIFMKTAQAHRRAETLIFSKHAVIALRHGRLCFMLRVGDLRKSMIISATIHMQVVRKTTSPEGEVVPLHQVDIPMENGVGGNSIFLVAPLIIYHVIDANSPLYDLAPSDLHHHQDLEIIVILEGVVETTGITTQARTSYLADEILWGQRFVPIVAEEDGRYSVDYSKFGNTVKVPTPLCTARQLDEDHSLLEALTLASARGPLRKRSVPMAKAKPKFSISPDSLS

For `[Cr]` [Cr, Chromium], in series [1], the “reduction of metformin requirements” value is “more than one-half”.

In the case of `COc1ccc(Cl)cc1C(=O)NCCc1ccc(S(=O)(=O)NC(=O)NC2CCCCC2)cc1` [Glyburide], the “glycolytic flux and lactate production” value in [2] is “dramatic increase”. For `O=C1O[C@H]([C@@H](O)CO)C(O)=C1O` [ascorbate, ascorbic acid], the “decrease of cellular insulin glycation” value in series [3] is 66-80%. Take `NC(=O)c1cccnc1` [nicotinamide, Nicotinamide]: in series [4], the “concentration of maximum recovery of glucose-induced insulin secretion” value is listed as 25 mmol/L. Consider `CN(C)C(=N)N=C(N)N` [Metformin, metformin], for which, in series [5], the “frequency of lactic acidosis” value is on record as 3 cases per 100,000 patient-years and the “incidence of lactic acidosis” value was 0.03 /1,000 patient-years exposure. As to vitamin E, in series [6], the “insulin efficiency and fibrinolysis” value was “may further worsen insulin efficiency and increase fibrinolysis”. In the case of `CC(=O)c1ccc(S(=O)(=O)NC(=O)NC2CCCCC2)cc1` [Acetohexamide], the “Duration of Action” value in series [7] was 12 to 18 h. `Cc1cnc(C(=O)NCCc2ccc(S(=O)(=O)NC(=O)NC3CCCCC3)cc2)cn1` [Glipizide]: the “concentration range that saturates receptors” value in [8] was “low nM”. The “Duration of Action” value in series [7] was 12 to 24 h.

On to `COC1=C(OC)C(=O)C(C/C=C(\C)CC/C=C(\C)CC/C=C(\C)CC/C=C(\C)CC/C=C(\C)CC/C=C(\C)CC/C=C(\C)CC/C=C(\C)CC/C=C(\C)CCC=C(C)C)=C(C)C1=O` [coenzyme Q10, Ubiquinone], for which, in series [9], the HDL-cholesterol entry is on record as “increased”; the “systolic and diastolic blood pressure, fasting and 2-h plasma insulin, glucose, triglycerides, lipid peroxides, malondialdehyde and diene conjugates” value was “all reduced”. Regarding `O=S(=O)([O-])[O-].[O]=[V+2]` [vanadyl sulfate], in series [10] (100 mg/day for 3 weeks), the “time effects are sustained after discontinuation” value is given as “up to 2 weeks”. In addition, the “hepatic and peripheral insulin sensitivity” value in [10] (100 mg/day, after 3 weeks) is recorded as “appear to improve”. As for `CCCCNC(=O)NS(=O)(=O)c1ccc(C)cc1` [Tolbutamide], in [7], the “Duration of Action” value was 6 to 12 h. As for `CCCNC(=O)NS(=O)(=O)c1ccc(Cl)cc1` [Chlorpropamide], the “Duration of Action” value in series [7] is 60 h. In the case of `CCC1=C(C)CN(C(=O)NCCc2ccc(S(=O)(=O)NC(=O)N[C@H]3CC[C@H](C)CC3)cc2)C1=O` [Glimepiride], the “Duration of Action” value in [7] was 16 to 24 h.
